Measurements from patent US20050075400A1, “Polymorphic forms of nateglinide” (priority 2002, published 2005).
Read-outs that look alike come from different tables or passages of the source.

Key:
[1] = Polymorphic stability on storage at room temperature for 24 h (XRPD); format: physicochemical; conditions: for crystal form after storage at RT for 24 h: room temperature and pressure, 24 h (about a day), open bottle, XRPD
Protocol: The various crystalline forms are also analyzed by Thermal Gravimetric Analysis (TGA). […] In contrast to the above listed forms, TGA profiles of forms L, P, U, α, δ and σ show no significant weight loss. These polymorphic forms of nateglinide are free of bound solvents, i.e., less than about 2% LOD. Table II lists the solvents used for the preparation for nateglinide solvated forms, as well as LOD values based on TGA analysis.
Storage at room temperature and pressure may also cause a transition of one form to another.
X-Ray diffraction was performed on X-Ray powder diffractometer, Scintag variable goniometer, Cu-tube, solid state detector. Sample holder: A round standard aluminum sample holder with round zero background quartz plate.
The sample was put on the sample holder and immediately analyzed as is. Scanning parameters: Range: 2-40 deg 2θ, Continuos Scan, Rate: 3 deg./min.

[2] = Thermal stability / form transformation on heating or drying (XRPD); format: physicochemical; conditions: for form obtained upon drying / heating: heating under ambient or reduced pressure, generally about 40-80° C.; for form after heating at 120° C.: 1 h, atmospheric pressure; for form after heating at 120° C. / form after heating at about 100° C.: XRPD; for form after heating at about 100° C.: 100° C. oil bath, 8.5 h
Protocol: The various crystalline forms are related to each other in that drying of one form may result in a transformation to another form, namely nateglinide Forms A, B, D, E, F, G, H, I, J, K, L, M, N, Q, S, T, V, Z, α, β, δ, γ, ε, θ and Ω. The drying is carried out by heating a sample under ambient or reduced pressure. Generally, a preferred temperature is from about 40° C. to about 80° C., more preferably under reduced pressure. […] The term “stable” as used herein refers to a polymorphic change of less than about 5% by weight, more preferably less than about 2%, particularly for Form δ.
Sample of nateglinide form U (˜1 g) was introduced into a 6-gram vial and heated over 8.5 h in a 100° C. oil bath. The vial were extracted from the bath.
Sample of nateglinide form U (˜0.5 g) was heated to 120° C. for 1 h in an atmospheric pressure.
Sample of nateglinide form δ (˜0.5 g) was heated to 120° C. for 1 h in an atmospheric pressure.

[3] = Absorption of solvent vapors by nateglinide Form H; format: physicochemical; conditions: for Δ (overweight): room temperature, 4 d
Protocol: Nateglinide (3.50 g) was added to a polypropylene can and weighed. The can was introduced into a bigger polypropylene container containing a solvent, and stored at room temperature. The can was removed from the container and weighed (Wfinal). The can content was divided into 2 portions. One portion was dried at a temperature of 55° C. and a pressure of 20-30 mmHg to constant weight (±0.01 g).

[4] = cited from earlier work
[5] = Stability at about 40° C. and about 75% relative humidity; format: physicochemical; conditions: about 40° C., relative humidity about 75%
Protocol: Crystalline Form δ is stable at a temperature of about 40° C. and a relative humidity of about 75% for at least about 3 months.

[6] = demonstrated by DSC; cited from earlier work

## CC(C)[C@H]1CC[C@H](C(=O)N[C@H](Cc2ccccc2)C(=O)O)CC1 [Form A, nateglinide]
[1]
  crystal form after storage at RT for 24 h: partially converts to Form B
[1]; listed as A
  crystal form after storage at RT for 24 h: conversion to Form B
[2]
  form obtained upon drying / heating: convert to Form B
[2]; listed as Form a
  form obtained upon drying / heating: Form S

## CC(C)[C@H]1CC[C@H](C(=O)N[C@H](Cc2ccccc2)C(=O)O)CC1 [Form σ, nateglinide]
[2]
  thermal stability (conversion to another form upon heating): thermally stable

## CC(C)[C@H]1CC[C@H](C(=O)N[C@H](Cc2ccccc2)C(=O)O)CC1 [Form M, nateglinide]
[2]
  form obtained upon drying / heating: Form L

## CC(C)[C@H]1CC[C@H](C(=O)N[C@H](Cc2ccccc2)C(=O)O)CC1 [Form I, nateglinide]
[1]
  crystal form after storage at RT for 24 h: converts to Form L
[1]; listed as I
  crystal form after storage at RT for 24 h: Form L

## CC(C)[C@H]1CC[C@H](C(=O)N[C@H](Cc2ccccc2)C(=O)O)CC1 [Form Y, nateglinide]
[2]
  thermal stability (conversion to another form upon heating): somewhat stable

## CC(C)[C@H]1CC[C@H](C(=O)N[C@H](Cc2ccccc2)C(=O)O)CC1 [Form C, nateglinide]
[2]
  form obtained upon drying / heating: convert to Form B

## CC(C)[C@H]1CC[C@H](C(=O)N[C@H](Cc2ccccc2)C(=O)O)CC1 [Form H, nateglinide]
[3]; Acetone vapors, 3.50 g NTG
  Δ (overweight): 0.08
[3]; DCM vapors, 3.49 g NTG
  Δ (overweight): 0.04
[3]; EtOH vapors, 3.50 g NTG
  Δ (overweight): 0.52
[3]; MeOH vapors, 3.50 g NTG
  Δ (overweight): 0.18
[3]; Water vapors, 3.50 g NTG
  Δ (overweight): 0.02
[3]; vapors of water and acetone
  stability in the presence of solvent vapors: stable
[2]
  thermal stability (conversion to another form upon heating): thermally stable

## CC(C)[C@H]1CC[C@H](C(=O)N[C@H](Cc2ccccc2)C(=O)O)CC1 [Form L, nateglinide]
[2]
  thermal stability (conversion to another form upon heating): thermally stable

## CC(C)[C@H]1CC[C@H](C(=O)N[C@H](Cc2ccccc2)C(=O)O)CC1 [nateglinide, (−)—N-(trans-4-isopropylcyclohexanecarbonyl)-D-Phenylalanine]
[4]; in acetonitrile
  solubility: sparingly soluble
[4]; in chloroform
  solubility: freely soluble
[4]; in ethanol
  solubility: freely soluble
[4]; in ether
  solubility: soluble
[4]; in methanol
  solubility: freely soluble
[4]; in octanol
  solubility: sparingly soluble
[4]; in water
  solubility: practically insoluble

## CC(C)[C@H]1CC[C@H](C(=O)N[C@H](Cc2ccccc2)C(=O)O)CC1 [Form Q, nateglinide]
[1]
  crystal form after storage at RT for 24 h: converts to Form Y
[1]; listed as Q
  crystal form after storage at RT for 24 h: Form Y, which contains
[2]
  form obtained upon drying / heating: convert to Form B

## CC(C)[C@H]1CC[C@H](C(=O)N[C@H](Cc2ccccc2)C(=O)O)CC1 [Form O, nateglinide]
[2]
  thermal stability (conversion to another form upon heating): somewhat stable

## CC(C)[C@H]1CC[C@H](C(=O)N[C@H](Cc2ccccc2)C(=O)O)CC1 [Form V, nateglinide]
[2]
  form obtained upon drying / heating: Form H

## CC(C)[C@H]1CC[C@H](C(=O)N[C@H](Cc2ccccc2)C(=O)O)CC1 [Form Z, nateglinide]
[2]
  form obtained upon drying / heating: convert to Form B

## CC(C)[C@H]1CC[C@H](C(=O)N[C@H](Cc2ccccc2)C(=O)O)CC1 [Form N, nateglinide]
[2]
  form obtained upon drying / heating: Form L

## CC(C)[C@H]1CC[C@H](C(=O)N[C@H](Cc2ccccc2)C(=O)O)CC1 [Form E, nateglinide]
[2]
  form obtained upon drying / heating: convert to Form B

## CC(C)[C@H]1CC[C@H](C(=O)N[C@H](Cc2ccccc2)C(=O)O)CC1 [Form ε, nateglinide]
[2]
  form obtained upon drying / heating: Form H

## CC(C)[C@H]1CC[C@H](C(=O)N[C@H](Cc2ccccc2)C(=O)O)CC1 [Form δ, nateglinide]
[5]
  time for which the crystalline form is stable: at least 3 months
[2]
  thermal stability (conversion to another form upon heating): somewhat stable
  form after heating at 120° C.: results in Form B
  form obtained upon drying / heating: convert to Form B
[2]; 60 mmHg vacuum, 60° C., 6 hours
  polymorph after drying in a stirred reactor: remained delta form
[2]; 60° C., overnight (at least about 8 hours)
  stability when heated to 60° C. overnight: stable
[2]; listed as form δ
  form after heating at 120° C.: Form B
[2]; 4 hours at 60° C.
  polymorphic form after drying in a fluidized bed drier: delta

## CC(C)[C@H]1CC[C@H](C(=O)N[C@H](Cc2ccccc2)C(=O)O)CC1 [Form J, nateglinide]
[1]; room temperature, overnight
  XRD pattern after storage at RT for overnight: XRD pattern slightly
[2]
  form obtained upon drying / heating: convert to Form B

## CC(C)[C@H]1CC[C@H](C(=O)N[C@H](Cc2ccccc2)C(=O)O)CC1 [acetonitrile solvate of Form Epsilon, nateglinide]
[2]
  form obtained upon drying / heating: Form B

## CC(C)[C@H]1CC[C@H](C(=O)N[C@H](Cc2ccccc2)C(=O)O)CC1 [Form G, nateglinide]
[2]
  form obtained upon drying / heating: convert to Form B

## CC(C)[C@H]1CC[C@H](C(=O)N[C@H](Cc2ccccc2)C(=O)O)CC1 [Form θ, nateglinide]
[2]
  form obtained upon drying / heating: convert to Form B

## CC(C)[C@H]1CC[C@H](C(=O)N[C@H](Cc2ccccc2)C(=O)O)CC1 [Form β, nateglinide]
[2]
  form obtained upon drying / heating: convert to Form B

## CC(C)[C@H]1CC[C@H](C(=O)N[C@H](Cc2ccccc2)C(=O)O)CC1 [Form B, nateglinide]
[2]
  thermal stability (conversion to another form upon heating): thermally stable
[6]
  stability during grinding: unstable and susceptible to change during grinding

## CC(C)[C@H]1CC[C@H](C(=O)N[C@H](Cc2ccccc2)C(=O)O)CC1 [Form Ω, nateglinide]
[2]; 50° C., vacuum oven, overnight, XRD
  form after drying in a vacuum oven: mixture of Form omega and Form Z
[2]
  form obtained upon drying / heating: convert to Form B

## CC(C)[C@H]1CC[C@H](C(=O)N[C@H](Cc2ccccc2)C(=O)O)CC1 [Form α, nateglinide]
[2]
  thermal stability (conversion to another form upon heating): somewhat stable
  form obtained upon drying / heating: convert to Form B

## CC(C)[C@H]1CC[C@H](C(=O)N[C@H](Cc2ccccc2)C(=O)O)CC1 [Form U, nateglinide]
[2]
  thermal stability (conversion to another form upon heating): thermally stable
  form after heating at about 100° C.: does not undergo a transition
  form after heating at 120° C.: Form U
[2]; listed as form U
  form after heating at about 100° C.: Form U

## CC(C)[C@H]1CC[C@H](C(=O)N[C@H](Cc2ccccc2)C(=O)O)CC1 [nitromethane solvates of Form Epsilon, nateglinide]
[2]
  form obtained upon drying / heating: Forms H or P

## CC(C)[C@H]1CC[C@H](C(=O)N[C@H](Cc2ccccc2)C(=O)O)CC1 [Form F, nateglinide]
[2]
  form obtained upon drying / heating: convert to a mixture of Form B and G

## CC(C)[C@H]1CC[C@H](C(=O)N[C@H](Cc2ccccc2)C(=O)O)CC1 [Form T, nateglinide]
[1]
  crystal form after storage at RT for 24 h: converts to Form E
[1]; listed as T
  crystal form after storage at RT for 24 h: Form E
[2]
  form obtained upon drying / heating: convert to a mixture of Form B and G
